Measurements from patent publication US20250243488A1, “METHODS OF MODULATING PROGRANULIN EXPRESSION USING ANTISENSE OLIGONUCLEOTIDES TARGETING REGULATORY RNAS” (Camp4 Therapeutics Corporation, priority 2022, published 2025).
Oligonucleotides are written 5' to 3', each unit as a sugar letter and its base; * is a phosphorothioate linkage, no mark a phosphodiester; rarer units and linkages stand in square brackets, end groups in braces. Plain capitals give the bases only. e = 2'-O-(2-methoxyethyl) (MOE); [5mC] = 5-methylcytosine

Test system: GRN mRNA
Assay: GRN mRNA qPCR in SK-N-AS cells transfected with ASOs
Assay type: cell-based, human
Details: SK-N-AS, normalized to CO-1589; for hGRN mRNA FC: Table 11, 48 hours; for 120 nM FC (GRN mRNA) / hGRN mRNA FC: 120 nM
Summary of the method: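 Fold change in GRN mRNA, by qPCR with GAPDH/PPIA housekeeping normalization, referenced to steric non-targeting control ASO(s) such as CO-1589. ASOs were transfected into SK-N-AS neuroblastoma cells in dose titrations (20 to 160 nM initially). Cells were harvested 48 hours post-transfection.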

| Substance | hGRN mRNA FC [FC] | further results |
| --- | --- | --- |
| CO-6425: ASO based on parent ASOs CO-4363 and CO-4364 (eG*eG*eG*eA*e[5mC]*eT*eT*eG*eG*eG*eA*eG*eT*eG*eG*eT*eG*eA*e[5mC]*eT*eG*eA*eA*e[5mC]) | – | 30 nM FC (GRN mRNA) (Table 13): 0.9 FC; 60 nM FC (GRN mRNA) (Table 13): 1.3 FC; 120 nM FC (GRN mRNA) (Table 13): 1.3 FC |
| CO-6426: ASO based on parent ASOs CO-4363 and CO-4364 (eG*eG*eA*e[5mC]*eT*eT*eG*eG*eG*eA*eG*eT*eG*eG*eT*eG*eA*e[5mC]*eT*eG*eA*eA*e[5mC]*e[5mC]) | – | 30 nM FC (GRN mRNA) (Table 13): 0.8 FC; 60 nM FC (GRN mRNA) (Table 13): 1.5 FC; 120 nM FC (GRN mRNA) (Table 13): 1.3 FC |
| CO-6427: ASO based on parent ASOs CO-4363 and CO-4364 (eG*eG*eG*eA*e[5mC]*eT*eT*eG*eG*eG*eA*eG*eT*eG*eG*eT*eG*eA*e[5mC]*eT*eG*eA*eA*e[5mC]*e[5mC]) | – | 30 nM FC (GRN mRNA) (Table 13): 1.2 FC; 60 nM FC (GRN mRNA) (Table 13): 1.1 FC; 120 nM FC (GRN mRNA) (Table 13): 1.2 FC |
| CO-6428: ASO based on parent ASOs CO-4363 and CO-4364 (eG*eG*eG*eA*e[5mC]*eT*eT*eG*eG*eG*eA*eG*eT*eG*eG*eT*eG*eA*e[5mC]*eT*eG*eA*eA*e[5mC]*e[5mC]*eT) | – | 30 nM FC (GRN mRNA) (Table 13): 1.1 FC; 60 nM FC (GRN mRNA) (Table 13): 1.4 FC; 120 nM FC (GRN mRNA) (Table 13): 1.0 FC |
| CO-6429: ASO based on parent ASOs CO-4363 and CO-4364 (eA*eG*eG*eG*eA*e[5mC]*eT*eT*eG*eG*eG*eA*eG*eT*eG*eG*eT*eG*eA*e[5mC]*eT*eG*eA*eA*e[5mC]*e[5mC]) | – | 30 nM FC (GRN mRNA) (Table 13): 1.0 FC; 60 nM FC (GRN mRNA) (Table 13): 1.5 FC; 120 nM FC (GRN mRNA) (Table 13): 1.4 FC |
| CO-6430: ASO designed to target an intragenic enhancer RNA (eRNA) (eT*eG*e[5mC]*eG*e[5mC]*eA*e[5mC]*eA*e[5mC]*eA*eG*eG*eT*eA*e[5mC]*e[5mC]*eA*eG*eA*eG) | 1.0 | – |
| CO-6431: ASO designed to target an intragenic enhancer RNA (eRNA) (eA*e[5mC]*eG*eG*eA*e[5mC]*e[5mC]*eT*e[5mC]*e[5mC]*eT*e[5mC]*eA*e[5mC]*eT*eA*eA*eG*e[5mC]*eT) | 0.8 | – |
| CO-6432: ASO designed to target an intragenic enhancer RNA (eRNA) (eG*eA*eG*eA*eA*e[5mC]*eG*e[5mC]*eT*eA*e[5mC]*e[5mC]*eA*e[5mC]*eG*eG*eA*e[5mC]*e[5mC]*eT) | 1.0 | – |
| CO-6433: ASO designed to target an intragenic enhancer RNA (eRNA) (eG*e[5mC]*eA*e[5mC]*eT*eG*e[5mC]*eT*eG*e[5mC]*e[5mC]*e[5mC]*e[5mC]*e[5mC]*eA*eA*eG*eA*e[5mC]*eA) | 0.9 | – |
| CO-6434: ASO designed to target an intragenic enhancer RNA (eRNA) (eT*e[5mC]*e[5mC]*eG*eA*eT*e[5mC]*eA*e[5mC]*e[5mC]*eT*eG*e[5mC]*eA*e[5mC]*eT*eG*e[5mC]*eT*eG) | 0.9 | – |
| CO-6435: ASO designed to target an intragenic enhancer RNA (eRNA) (eA*eG*eG*e[5mC]*e[5mC]*eA*e[5mC]*e[5mC]*eT*eG*e[5mC]*eT*eG*e[5mC]*eT*e[5mC]*e[5mC]*eG*eA*eT) | 1.2 | – |
| CO-6436: ASO designed to target an intragenic enhancer RNA (eRNA) (eT*eG*eT*e[5mC]*e[5mC]*e[5mC]*e[5mC]*eA*e[5mC]*eT*e[5mC]*eA*eG*eG*e[5mC]*e[5mC]*eA*e[5mC]*e[5mC]*eT) | 1.1 | – |
| CO-6437: ASO designed to target an intragenic enhancer RNA (eRNA) (eG*eA*e[5mC]*eA*eA*eA*eG*eA*e[5mC]*e[5mC]*e[5mC]*eA*e[5mC]*e[5mC]*e[5mC]*e[5mC]*eT*eG*eT*e[5mC]) | 1.1 | – |
| CO-6438: ASO designed to target an intragenic enhancer RNA (eRNA) (e[5mC]*eT*eA*e[5mC]*eT*eG*eA*eG*e[5mC]*e[5mC]*eT*eG*eG*eA*eA*eG*eT*eG*eA*e[5mC]) | 1.2 | – |
| CO-6439: ASO designed to target an intragenic enhancer RNA (eRNA) (eG*e[5mC]*eT*e[5mC]*e[5mC]*e[5mC]*eT*eG*eT*eG*eT*eG*e[5mC]*eT*eA*e[5mC]*eT*eG*eA*eG) | 1.1 | – |
| CO-6440: ASO designed to target an intragenic enhancer RNA (eRNA) (eG*eT*eT*e[5mC]*eA*eT*eG*e[5mC]*eT*eA*e[5mC]*e[5mC]*e[5mC]*e[5mC]*e[5mC]*eT*eA*eG*eT*eG) | 1.0 | – |
| CO-6441: ASO designed to target an intragenic enhancer RNA (eRNA) (eG*eG*e[5mC]*eT*eG*eA*eT*eG*e[5mC]*eA*eG*eG*eG*eT*eT*e[5mC]*eA*eT*eG*e[5mC]) | 1.4 | – |

| Substance | hGRN mRNA FC [FC] | further results |
| --- | --- | --- |
| CO-6442: ASO designed to target an intragenic enhancer RNA (eRNA) (e[5mC]*eT*eG*eG*eG*eA*eG*e[5mC]*e[5mC]*eT*eG*eG*e[5mC]*eT*eG*eA*eT*eG*e[5mC]*eA) | 1.2 | – |
| CO-6443: ASO designed to target an intragenic enhancer RNA (eRNA) (eG*e[5mC]*e[5mC]*e[5mC]*eT*eG*eA*e[5mC]*eA*e[5mC]*eG*e[5mC]*eA*e[5mC]*e[5mC]*eT*eT*eA*e[5mC]*eA) | 1.0 | – |
| CO-6444: ASO designed to target an intragenic enhancer RNA (eRNA) (eT*eG*e[5mC]*e[5mC]*e[5mC]*eA*eA*eT*eG*e[5mC]*e[5mC]*e[5mC]*eA*eA*e[5mC]*eG*eT*eG*eA*eG) | 1.0 | – |
| CO-6445: ASO designed to target an intragenic enhancer RNA (eRNA) (eG*eT*eG*eG*eG*eA*eA*eG*eT*eA*eT*eG*eG*e[5mC]*eT*eG*e[5mC]*eT*eG*e[5mC]) | 1.3 | – |
| CO-6446: ASO designed to target an intragenic enhancer RNA (eRNA) (eT*eG*e[5mC]*eT*eG*eT*eG*eA*eG*e[5mC]*eT*eG*e[5mC]*e[5mC]*e[5mC]*eA*eG*eT*eG*eG) | 1.1 | – |
| CO-6447: ASO designed to target an intragenic enhancer RNA (eRNA) (eA*eT*eG*eG*eT*eT*e[5mC]*eT*eA*e[5mC]*e[5mC]*eT*eG*e[5mC]*eT*eG*eT*eG*eA*eG) | 1.2 | – |
| CO-6448: ASO designed to target an intragenic enhancer RNA (eRNA) (eT*e[5mC]*e[5mC]*e[5mC]*eG*eG*eT*eG*e[5mC]*e[5mC]*e[5mC]*eT*eG*eA*eT*eG*eG*eT*eT*e[5mC]) | 1.1 | – |
| CO-6449: ASO designed to target an intragenic enhancer RNA (eRNA) (eG*eT*e[5mC]*e[5mC]*eA*eG*e[5mC]*eT*e[5mC]*eG*eG*eT*e[5mC]*eA*eT*eG*eT*eG*eT*e[5mC]) | 1.1 | – |
| CO-6450: ASO designed to target an intragenic enhancer RNA (eRNA) (e[5mC]*eA*eG*eT*eG*eG*e[5mC]*e[5mC]*eT*eT*eG*eT*e[5mC]*e[5mC]*eA*eG*e[5mC]*eT*e[5mC]*eG) | 0.9 | – |
| CO-6451: ASO designed to target an intragenic enhancer RNA (eRNA) (eA*e[5mC]*eG*eT*eT*eT*eG*e[5mC]*eT*e[5mC]*e[5mC]*eT*e[5mC]*eT*eT*e[5mC]*e[5mC]*eA*eG*eT) | 1.0 | – |
| CO-6452: ASO designed to target an intragenic enhancer RNA (eRNA) (eT*eG*eG*e[5mC]*eT*eG*e[5mC]*e[5mC]*e[5mC]*e[5mC]*eT*e[5mC]*eA*e[5mC]*eG*eT*eT*eT*eG*e[5mC]) | 1.4 | – |
| CO-6453: ASO designed to target an intragenic enhancer RNA (eRNA) (eG*eA*eA*eA*eA*eA*eG*eT*eT*eT*e[5mC]*e[5mC]*eT*e[5mC]*e[5mC]*eA*eT*e[5mC]*e[5mC]*eT) | 0.9 | – |
| CO-6454: ASO designed to target an intragenic enhancer RNA (eRNA) (e[5mC]*e[5mC]*eA*eA*eG*eT*eG*eT*eA*eG*eG*eA*eA*eA*eA*eA*eG*eT*eT*eT) | 1.0 | – |
| CO-6455: ASO designed to target an intragenic enhancer RNA (eRNA) (e[5mC]*eT*e[5mC]*eA*eT*eT*eG*eA*e[5mC]*eT*e[5mC]*e[5mC]*eA*eA*eG*eT*eG*eT*eA*eG) | 0.9 | – |
| CO-6512: ASO based on parent ASO CO-3462 (antisense eT*eA*eGeGeAeGeA*eA*eT*e[5mC]*eG*e[5mC]eT*eT*eT*eG*eG*eG*eA*eG) | – | 30 nM FC (GRN mRNA) (Table 12): 1.3 FC; 60 nM FC (GRN mRNA) (Table 12): 1.8 FC; 120 nM FC (GRN mRNA) (Table 12): 1.3 FC |
| CO-6513: ASO based on parent ASO CO-3462 (antisense eT*eA*eGeGeAeGeAeAeT*e[5mC]*eG*e[5mC]*eT*eT*eT*eG*eG*eG*eA*eG) | – | 30 nM FC (GRN mRNA) (Table 12): 1.3 FC; 60 nM FC (GRN mRNA) (Table 12): 2.7 FC; 120 nM FC (GRN mRNA) (Table 12): 1.8 FC |
